Test results published in the Kinase Knowledgebase extract (Sharma et al. 2016).

These compounds were tested against PIK3CA (human) (UniProt P42336) (assay: Assessment of PIK3CA Kinase Activity).
Chain of PIK3CA (human) (P42336 whole entry, looked up): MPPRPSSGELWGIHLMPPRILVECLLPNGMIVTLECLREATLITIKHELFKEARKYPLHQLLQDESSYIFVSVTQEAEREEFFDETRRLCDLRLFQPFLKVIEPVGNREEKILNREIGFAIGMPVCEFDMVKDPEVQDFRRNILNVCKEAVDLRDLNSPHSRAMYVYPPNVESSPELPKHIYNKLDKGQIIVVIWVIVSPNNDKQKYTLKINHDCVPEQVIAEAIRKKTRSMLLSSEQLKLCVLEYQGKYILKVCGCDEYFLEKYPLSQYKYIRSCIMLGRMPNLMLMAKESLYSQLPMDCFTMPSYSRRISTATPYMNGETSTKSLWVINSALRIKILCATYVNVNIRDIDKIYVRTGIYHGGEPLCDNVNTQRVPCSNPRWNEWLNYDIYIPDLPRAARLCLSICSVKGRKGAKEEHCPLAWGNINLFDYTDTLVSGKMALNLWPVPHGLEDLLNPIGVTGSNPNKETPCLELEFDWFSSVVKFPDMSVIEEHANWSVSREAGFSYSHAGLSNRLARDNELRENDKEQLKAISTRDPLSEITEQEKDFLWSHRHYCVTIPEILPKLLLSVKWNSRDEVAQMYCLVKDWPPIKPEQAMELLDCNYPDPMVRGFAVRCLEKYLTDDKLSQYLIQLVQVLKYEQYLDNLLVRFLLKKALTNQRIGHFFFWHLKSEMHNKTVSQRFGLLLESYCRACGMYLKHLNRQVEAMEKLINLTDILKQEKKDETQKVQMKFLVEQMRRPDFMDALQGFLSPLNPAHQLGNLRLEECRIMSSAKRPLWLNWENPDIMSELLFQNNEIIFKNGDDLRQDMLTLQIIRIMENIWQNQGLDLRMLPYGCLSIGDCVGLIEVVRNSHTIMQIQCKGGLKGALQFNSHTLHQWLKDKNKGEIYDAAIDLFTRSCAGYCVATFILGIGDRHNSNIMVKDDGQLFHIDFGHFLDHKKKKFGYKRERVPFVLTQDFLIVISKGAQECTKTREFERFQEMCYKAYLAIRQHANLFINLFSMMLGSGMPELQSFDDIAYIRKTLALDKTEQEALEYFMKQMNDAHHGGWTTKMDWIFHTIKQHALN
With `CN(C)C(=O)c1ccc(NC(=O)Nc2ccc(-c3nc(N4CCOCC4)c4ncc(-c5cccnc5F)cc4n3)c(F)c2)cc1` the IC50 was < 50 nM. With `CN(C)C(=O)c1ccc(NC(=O)Nc2ccc(-c3nc(N4CCOCC4)c4ccc(C(C)(C)O)cc4n3)cc2F)cc1` the IC50 was 50 to 200 nM. With `CN(C)C(=O)c1ccc(NC(=O)Nc2ccc(-c3nc(N4CCOCC4)c4ccc(-c5cccnc5F)cc4n3)cc2)cc1` the IC50 was 50 to 200 nM. With `CN1CCN(C(=O)c2ccc(NC(=O)Nc3ccc(-c4nc(N5CCOCC5)c5cc(F)c(-c6cccnc6)cc5n4)cc3F)cc2)CC1` the IC50 was < 50 nM. `CN(C)C(=O)c1ccc(NC(=O)Nc2ccc(-c3nc(N4CCOCC4)c4ccc(-c5cnc(N(C)C)nc5)cc4n3)cc2F)cc1` gave an IC50 of 50 to 200 nM. `CNC(=O)c1ccc(NC(=O)Nc2ccc(-c3nc(N4CCOCC4)c4ccc(-c5cncnc5)cc4n3)cc2F)cc1` was tested, and the IC50 was 50 to 200 nM. For `CN(C)C(=O)c1ccc(NC(=O)Nc2ccc(-c3nc(N4CCOCC4)c4cc(F)c(-c5cccnc5)cc4n3)cc2)cc1`, the IC50 was < 50 nM. `CN(C)C(=O)c1ccc(NC(=O)Nc2ccc(-c3nc(N4CCOCC4)c4ccc(-c5cccnc5)cc4n3)cc2)cc1F` was tested, and the IC50 was < 50 nM. `CN(C)C(=O)c1ccc(NC(=O)Nc2ccc(-c3nc(N4CCOCC4)c4ccc(-c5cncnc5)cc4n3)cc2F)cn1` gave an IC50 of 50 to 200 nM. With `CN(C)C(=O)c1ccc(NC(=O)Nc2ccc(-c3nc(N4CCOCC4)c4ncc(-c5cncnc5)cc4n3)c(F)c2)cc1` the IC50 was < 50 nM. `CC1CN(c2nc(-c3ccc(NC(=O)Nc4ccc(C(=O)N(C)C)cc4)cc3)nc3cc(-c4cnn(C)c4)cnc23)CCO1` (configuration not stated) was tested, and the IC50 was < 50 nM. For `Cc1ccc(-c2ccc3c(N4CCOCC4)nc(-c4ccc(NC(=O)Nc5ccc(C(=O)N(C)C)c(F)c5)cc4)nc3c2)o1`, the IC50 was 50 to 200 nM. With `CN(C)C(=O)c1ccc(NC(=O)Nc2ccc(-c3nc(N4CCOCC4)c4ccc(-c5ccc(C#N)o5)cc4n3)cc2)cc1` the IC50 was < 50 nM. For `CN(C)C(=O)c1ccc(NC(=O)Nc2ccc(-c3nc(N4CCOCC4)c4ccc(C(C)(C)O)cc4n3)cc2)cc1`, the IC50 was < 50 nM. For `Cc1noc(C)c1-c1ccc2c(N3CCOCC3)nc(-c3ccc(NC(=O)Nc4ccc(C(=O)N(C)C)cc4)c(F)c3)nc2c1`, the IC50 was < 50 nM. Work on `CN(C)C(=O)c1ccc(NC(=O)Nc2cc(F)c(-c3nc(N4CCOCC4)c4ccc(-c5cncnc5)cc4n3)cc2F)cc1` yielded an IC50 of 50 to 200 nM. `CN(C)C(=O)c1ccc(NC(=O)Nc2ccc(-c3nc(N4CCOCC4)c4ncc(-c5cccnc5F)cc4n3)cc2)c(F)c1` was tested, and the IC50 was < 50 nM. In the case of `CN(C)CCNC(=O)c1ccc(NC(=O)Nc2ccc(-c3nc(N4CCOCC4)c4ccc(-c5cncnc5)cc4n3)cc2F)cc1`, the IC50 is reported as < 50 nM. In the case of `CN(C)C(=O)c1ccc(NC(=O)Nc2ccc(-c3nc(N4CCOCC4)c4ncc(-c5cnn(C)c5)cc4n3)c(F)c2F)cc1`, the IC50 is reported as < 50 nM. With `COc1ncc(-c2cnc3c(N4CCOCC4)nc(-c4ccc(NC(=O)Nc5ccc(C(=O)N(C)C)cc5F)cc4)nc3c2)cn1` the IC50 was < 50 nM. With `CN(C)C(=O)c1ccc(NC(=O)Nc2ccc(-c3nc(N4CCOCC4)c4ccc(-c5ccc(C(=O)O)o5)cc4n3)cc2)cc1` the IC50 was < 50 nM. For `Cc1ccc(-c2ccc3c(N4CCOC(C)C4)nc(-c4ccc(NC(=O)Nc5ccc(C(=O)N(C)C)cc5)cc4)nc3c2)o1` (configuration not stated), the IC50 was 50 to 200 nM. In the case of `CN(C)[C@H]1CCN(C(=O)c2ccc(NC(=O)Nc3ccc(-c4nc(N5CCOCC5)c5ncc(-c6cncnc6)cc5n4)cc3)cc2)C1`, the IC50 is reported as < 50 nM. For `CN(C)C(=O)c1ccc(NC(=O)Nc2ccc(-c3nc(N4CCOCC4)c4ncc(-c5cccnc5F)cc4n3)cc2)cc1F`, the IC50 was < 50 nM. `CN(C)[C@@H]1CCN(C(=O)c2ccc(NC(=O)Nc3ccc(-c4nc(N5CCOCC5)c5ncc(-c6cnn(C)c6)cc5n4)cc3)cc2)C1` was tested, and the IC50 was < 50 nM. With `Cc1ccc(-c2ccc3c(N4CCOCC4)nc(-c4ccc(NC(=O)Nc5ccc(C(=O)N6CCC(O)C6)cc5)cc4)nc3c2)o1` (configuration not stated) the IC50 was < 50 nM. `Cc1noc(C)c1-c1ccc2c(N3CCOCC3)nc(-c3ccc(NC(=O)Nc4ccc(C(=O)N5CC[C@H](N(C)C)C5)cc4)cc3)nc2c1` gave an IC50 of 50 to 200 nM. `CN(C)C(=O)c1ccc(NC(=O)Nc2ccc(-c3nc(N4CCOCC4)c4cc(F)c(-c5cccnc5)cc4n3)cc2)c(F)c1` was tested, and the IC50 was < 50 nM. With `CN(C)C(=O)c1ccc(NC(=O)Nc2ccc(-c3nc(N4CCOCC4)c4ccc(-c5cccc(S(C)(=O)=O)c5)cc4n3)cc2F)cc1` the IC50 was < 50 nM. For `CN(C)C(=O)c1ccc(NC(=O)Nc2ccc(-c3nc(N4CCOCC4)c4ccc(-c5cnn(C)c5)cc4n3)cn2)c(F)c1`, the IC50 was < 50 nM. In the case of `CN(C)C(=O)c1ccc(NC(=O)Nc2ccc(-c3nc(N4CCOCC4)c4ccc(-c5ccoc5)cc4n3)cc2)cc1`, the IC50 is reported as 50 to 200 nM. `Cc1ccc(-c2ccc3c(N4CCOCC4)nc(-c4ccc(NC(=O)Nc5ccc(C(=O)N(C)C)cc5F)cc4)nc3c2)cn1` was tested, and the IC50 was < 50 nM. In the case of `CN(C)C(=O)c1ccc(NC(=O)Nc2ccc(-c3nc(N4CCOCC4)c4ccc(-c5cccc(O)c5)cc4n3)cc2)cc1`, the IC50 is reported as < 50 nM. `CN(C)Cc1ccc(-c2ccc3c(N4CCOCC4)nc(-c4ccc(NC(=O)Nc5ccc(C(=O)N(C)C)cc5)cc4)nc3c2)o1` showed an IC50 of 50 to 200 nM. With `CN(C)C(=O)c1ccc(NC(=O)Nc2ccc(-c3nc(N4CCOCC4)c4ccc(-c5ccc(C(C)(C)O)o5)cc4n3)cc2)cc1` the IC50 was < 50 nM. `Cc1ccc(-c2ccc3c(N4CCOCC4)nc(-c4ccc(NC(=O)Nc5ccc(C(=O)N(C)C)cc5)cc4)nc3c2)cn1` was tested, and the IC50 was < 50 nM. For `CN(C)C(=O)c1ccc(NC(=O)Nc2ccc(-c3nc(N4CCOCC4)c4ccc(-c5cccc(NS(C)(=O)=O)c5)cc4n3)cc2)cc1`, the IC50 was < 50 nM. For `CN(C)CC(=O)Nc1cncc(-c2ccc3c(N4CCOCC4)nc(-c4ccc(NC(=O)Nc5ccc(C(=O)N(C)C)cc5)cc4)nc3c2)c1`, the IC50 was < 50 nM. In the case of `CN(C)[C@H]1CCN(C(=O)c2ccc(NC(=O)Nc3ccc(-c4nc(N5CCOCC5)c5ncc(-c6cccnc6F)cc5n4)cc3F)cc2)C1`, the IC50 is reported as < 50 nM. `Cc1ccc(-c2ccc3c(N4CCOCC4)nc(-c4ccc(NC(=O)Nc5ccc(C(=O)N(C)C)cc5)cc4F)nc3c2)o1` showed an IC50 of 50 to 200 nM. With `CN(C)C(=O)c1ccc(NC(=O)Nc2ccc(-c3nc(N4CCOCC4)c4ccc(-c5ccc(N)nc5)cc4n3)cc2)cc1` the IC50 was < 50 nM. For `Cc1ncccc1-c1ccc2c(N3CCOCC3)nc(-c3ccc(NC(=O)Nc4ccc(C(=O)N(C)C)cc4)cc3)nc2c1`, the IC50 was < 50 nM. With `CN(C)CCN(C)C(=O)c1ccc(NC(=O)Nc2ccc(-c3nc(N4CCOCC4)c4ccc(-c5ccncc5)cc4n3)cc2)cc1` the IC50 was < 50 nM. For `CC(O)c1ccc(-c2ccc3c(N4CCOCC4)nc(-c4ccc(NC(=O)Nc5ccc(C(=O)N(C)C)cc5)cc4)nc3c2)o1` (configuration not stated), the IC50 was < 50 nM. Work on `CN(C)C(=O)c1ccc(NC(=O)Nc2ccc(-c3nc(N4CCOCC4)c4cccc(-c5cccc(O)c5)c4n3)cc2)cc1` yielded an IC50 of 50 to 200 nM. With `CN(C)C1CCN(C(=O)c2ccc(NC(=O)Nc3ccc(-c4nc(N5CCOCC5)c5ccc(C(C)(C)O)cc5n4)cc3)cc2)CC1` the IC50 was < 50 nM. For `CN1CCN(C(=O)c2ccc(NC(=O)Nc3ccc(-c4nc(N5CCOCC5)c5ncc(-c6cnn(C)c6)cc5n4)cc3)cc2)CC1`, the IC50 was < 50 nM. In the case of `CN(C)C(=O)c1ccc(NC(=O)Nc2ccc(-c3nc(N4CCOCC4)c4cc(F)c(-c5cncnc5)cc4n3)cc2F)cc1`, the IC50 is reported as < 50 nM. For `CN(C)C(=O)c1ccc(NC(=O)Nc2ccc(-c3nc(N4CCOCC4)c4cc(F)c(-c5cccc(S(C)(=O)=O)c5)cc4n3)cc2)cc1`, the IC50 was < 50 nM. `CNC(=O)c1ccc(NC(=O)Nc2ccc(-c3nc(N4CCOCC4)c4ccc(-c5ccco5)cc4n3)cc2)cc1` was tested, and the IC50 was < 50 nM. For `N[C@H]1CCN(C(=O)c2ccc(NC(=O)Nc3ccc(-c4nc(N5CCOCC5)c5ccc(-c6cncnc6)cc5n4)cc3F)cc2)C1`, the IC50 was < 50 nM. In the case of `Cc1noc(C)c1-c1cnc2c(N3CCOCC3)nc(-c3ccc(NC(=O)Nc4ccc(C(=O)N(C)C)cc4)cc3)nc2c1`, the IC50 is reported as < 50 nM. In the case of `CN(C)C(=O)c1ccc(NC(=O)Nc2ccc(-c3nc(N4CCOCC4)c4ccc(CO)cc4n3)cc2)cc1`, the IC50 is reported as < 50 nM. With `N[C@@H]1CCN(C(=O)c2ccc(NC(=O)Nc3ccc(-c4nc(N5CCOCC5)c5ccc(-c6cncnc6)cc5n4)cc3)cc2)C1` the IC50 was < 50 nM. Work on `COc1ncccc1-c1ccc2c(N3CCOCC3)nc(-c3ccc(NC(=O)Nc4ccc(C(=O)N(C)C)cc4)cc3F)nc2c1` yielded an IC50 of 50 to 200 nM. With `CC(=O)Nc1cccc(-c2ccc3c(N4CCOCC4)nc(-c4ccc(NC(=O)Nc5ccc(C(=O)N(C)C)cc5)cc4)nc3c2)c1` the IC50 was < 50 nM. `CN(C)[C@H]1CCN(C(=O)c2ccc(NC(=O)Nc3ccc(-c4nc(N5CCOCC5)c5ccc(C(C)(C)O)cc5n4)cc3)cc2)C1` gave an IC50 of 50 to 200 nM. In the case of `CN(C)C(=O)c1ccc(NC(=O)Nc2ccc(-c3nc(N4CCOCC4)c4ccc(-c5cccc(CO)c5)cc4n3)cc2)cc1`, the IC50 is reported as < 50 nM. With `Cc1ccc(-c2ccc3c(N4CCOCC4)nc(-c4ccc(NC(=O)Nc5ccc(C(=O)N(C)C)cc5)nc4)nc3c2)o1` the IC50 was < 50 nM. For `CN(C)CCN(C)C(=O)c1ccc(NC(=O)Nc2ccc(-c3nc(N4CCOCC4)c4ccc(-c5ccco5)cc4n3)cc2)cc1`, the IC50 was < 50 nM. With `CN(C)C(=O)c1ccc(NC(=O)Nc2ccc(-c3nc(N4CCOCC4)c4ccc(-c5ccc(CO)o5)cc4n3)cc2)cc1F` the IC50 was < 50 nM. For `Cc1ccc(-c2ccc3c(N4CCOCC4)nc(-c4ccc(NC(=O)Nc5ccc(C(=O)N6CC[C@@H](N(C)C)C6)cc5)cc4)nc3c2)o1`, the IC50 was 50 to 200 nM. Work on `COc1ccc(-c2ccc3c(N4CCOCC4)nc(-c4ccc(NC(=O)Nc5ccc(C(=O)N(C)C)cc5)cc4F)nc3c2)cn1` yielded an IC50 of 50 to 200 nM. In the case of `CN(C)C(=O)c1ccc(NC(=O)Nc2ccc(-c3nc(N4CCOCC4)c4ncc(-c5cnn(C)c5)cc4n3)cc2)cc1`, the IC50 is reported as < 50 nM. `CN(C)C(=O)c1ccc(NC(=O)Nc2ccc(-c3nc(N4CCOCC4)c4ncc(-c5cccnc5)cc4n3)cc2)c(F)c1` was tested, and the IC50 was < 50 nM. Compound `CN1CCN(C(=O)c2ccc(NC(=O)Nc3ccc(-c4nc(N5CCOCC5)c5ccc(-c6cnn(C)c6)cc5n4)cc3)cc2)CC1` has an IC50 of 50 to 200 nM. For `CC(=O)c1ccc(-c2ccc3c(N4CCOCC4)nc(-c4ccc(NC(=O)Nc5ccc(C(=O)N(C)C)cc5)cc4)nc3c2)o1`, the IC50 was < 50 nM. In the case of `COc1ncc(-c2cnc3c(N4CCOCC4)nc(-c4ccc(NC(=O)Nc5ccc(C(=O)N(C)C)cc5)cc4)nc3c2)cn1`, the IC50 is reported as < 50 nM. With `CN(C)C1CCN(C(=O)c2ccc(NC(=O)Nc3ccc(-c4nc(N5CCOCC5)c5ncc(-c6cnn(C)c6)cc5n4)cc3)cc2)CC1` the IC50 was < 50 nM. With `O=C(Nc1ccc(C(=O)N2CCC(O)C2)cc1)Nc1ccc(-c2nc(N3CCOCC3)c3ccc(-c4ccco4)cc3n2)cc1` (configuration not stated) the IC50 was < 50 nM. Compound `CN(C)C(=O)c1ccc(NC(=O)Nc2ccc(-c3nc(N4CCOCC4)c4ccc(-c5cnn(C)c5)cc4n3)c(F)c2)cc1` has an IC50 of 50 to 200 nM. In the case of `CN(C)C(=O)c1ccc(NC(=O)Nc2ccc(-c3nc(N4CCOCC4)c4ccc(-c5ccc(N)nc5)cc4n3)cc2)c(F)c1`, the IC50 is reported as 50 to 200 nM.
